In PubChem BioAssay AID2060489 (Molecular Pharmacology Branch, DTP, NCI, 2025):

Tested on: 922993-354-T-J3-PDC complex spheroids, viability
Assay: Anticancer human tumor 922993-354-T-J3-PDC patient-derived endometrial carcinoma cell line growth inhibition [GQUAD]
Conditions: for IC50: curve of first compound; for viability, T/C: stronger effect = lower value
How it was run: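 Multi-cell-type spheroids of tumor cells with HUVEC and mesenchymal stem cells, treated with drug combinations. Concentrations descend in half-log steps from near clinical Cmax, or from 10 microM where Cmax is unknown; viability read-out.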

[1] = second compound 0.0316 µM, first compound 0.0316 µM
[2] = second compound 0.0316 µM, first compound 0.1 µM
[3] = second compound 0.0316 µM, first compound 0.316 µM
[4] = second compound 0.0316 µM, first compound 1 µM
[5] = second compound 0.0316 µM, first compound 3.16 µM
[6] = second compound 0.0316 µM, first compound 10 µM
[7] = second compound 0.1 µM, first compound 0.0316 µM
[8] = second compound 0.1 µM, first compound 0.1 µM
[9] = second compound 0.1 µM, first compound 0.316 µM
[10] = second compound 0.1 µM, first compound 1 µM
[11] = second compound 0.1 µM, first compound 3.16 µM
[12] = second compound 0.1 µM, first compound 10 µM
[13] = second compound 0.316 µM, first compound 0.0316 µM
[14] = second compound 0.316 µM, first compound 0.1 µM
[15] = second compound 0.316 µM, first compound 0.316 µM
[16] = second compound 0.316 µM, first compound 1 µM
[17] = second compound 0.316 µM, first compound 3.16 µM
[18] = second compound 0.316 µM, first compound 10 µM
[19] = second compound 1 µM, first compound 0.0316 µM
[20] = second compound 1 µM, first compound 0.1 µM
[21] = second compound 1 µM, first compound 0.316 µM
[22] = second compound 1 µM, first compound 1 µM
[23] = second compound 1 µM, first compound 3.16 µM
[24] = second compound 1 µM, first compound 10 µM
[25] = second compound 3.16 µM, first compound 0.0316 µM
[26] = second compound 3.16 µM, first compound 0.1 µM
[27] = second compound 3.16 µM, first compound 0.316 µM
[28] = second compound 3.16 µM, first compound 1 µM
[29] = second compound 3.16 µM, first compound 3.16 µM
[30] = second compound 3.16 µM, first compound 10 µM
[31] = second compound 10 µM, first compound 0.0316 µM
[32] = second compound 10 µM, first compound 0.1 µM
[33] = second compound 10 µM, first compound 0.316 µM
[34] = second compound 10 µM, first compound 1 µM
[35] = second compound 10 µM, first compound 3.16 µM
[36] = second compound 10 µM, first compound 10 µM
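Note: spheroids exposed to compounds for seven days.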
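Throughout, for viability, T/C: 100% = DMSO vehicle control viability.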

## CC(=O)O[C@H]1C(=O)[C@@]2(C)[C@H]([C@H](OC(=O)c3ccccc3)[C@]3(O)C[C@H](OC(=O)[C@H](O)[C@@H](NC(=O)c4ccccc4)c4ccccc4)C(C)=C1C3(C)C)[C@]1(OC(C)=O)CO[C@@H]1C[C@@H]2O + Cc1[nH]c2ccc(F)cc2c1-c1nc2c3cccnc3c3ncccc3c2[nH]1
Second compound 0.0316 µM
  IC50: 6.76 µM
Second compound 0.1 µM
  IC50: > 10 µM
Second compound 0.316 µM
  IC50: > 10 µM
Second compound 1 µM
  IC50: 9.27 µM
Second compound 3.16 µM
  IC50: 8.19 µM
Second compound 10 µM
  IC50: > 10 µM
[1]
  viability, T/C: 109%
[2]
  viability, T/C: 84.6%
[3]
  viability, T/C: 124%
[4]
  viability, T/C: 115%
[5]
  viability, T/C: 68.4%
[6]
  viability, T/C: 40.5%
[7]
  viability, T/C: 124%
[8]
  viability, T/C: 87.3%
[9]
  viability, T/C: 96.6%
[10]
  viability, T/C: 119%
[11]
  viability, T/C: 75.7%
[12]
  viability, T/C: 49.6%
[13]
  viability, T/C: 98.8%
[14]
  viability, T/C: 90.4%
[15]
  viability, T/C: 136%
[16]
  viability, T/C: 89.2%
[17]
  viability, T/C: 88.1%
[18]
  viability, T/C: 50.3%
[19]
  viability, T/C: 103%
[20]
  viability, T/C: 126%
[21]
  viability, T/C: 119%
[22]
  viability, T/C: 109%
[23]
  viability, T/C: 81.3%
[24]
  viability, T/C: 47.8%
[25]
  viability, T/C: 104%
[26]
  viability, T/C: 115%
[27]
  viability, T/C: 124%
[28]
  viability, T/C: 136%
[29]
  viability, T/C: 93.6%
[30]
  viability, T/C: 40.9%
[31]
  viability, T/C: 97.7%
[32]
  viability, T/C: 94%
[33]
  viability, T/C: 117%
[34]
  viability, T/C: 105%
[35]
  viability, T/C: 86.2%
[36]
  viability, T/C: 57.7%

## COc1ccc([C@@H](O)c2cc(-c3ncnc4cc(N5CCOCC5)ccc34)c(F)cc2Cl)nn1 + Cc1[nH]c2ccc(F)cc2c1-c1nc2c3cccnc3c3ncccc3c2[nH]1
Second compound 0.0316 µM
  IC50: 9.14 µM
Second compound 0.1 µM
  IC50: > 10 µM
Second compound 0.316 µM
  IC50: 8.51 µM
Second compound 1 µM
  IC50: > 10 µM
Second compound 3.16 µM
  IC50: > 10 µM
Second compound 10 µM
  IC50: > 10 µM
[1]
  viability, T/C: 107%
[2]
  viability, T/C: 112%
[3]
  viability, T/C: 92.9%
[4]
  viability, T/C: 90%
[5]
  viability, T/C: 95.8%
[6]
  viability, T/C: 45.7%
[7]
  viability, T/C: 123%
[8]
  viability, T/C: 115%
[9]
  viability, T/C: 114%
[10]
  viability, T/C: 94.9%
[11]
  viability, T/C: 115%
[12]
  viability, T/C: 58.1%
[13]
  viability, T/C: 106%
[14]
  viability, T/C: 116%
[15]
  viability, T/C: 94%
[16]
  viability, T/C: 100%
[17]
  viability, T/C: 86.8%
[18]
  viability, T/C: 43.4%
[19]
  viability, T/C: 114%
[20]
  viability, T/C: 108%
[21]
  viability, T/C: 72.2%
[22]
  viability, T/C: 88.6%
[23]
  viability, T/C: 97.1%
[24]
  viability, T/C: 68.2%
[25]
  viability, T/C: 101%
[26]
  viability, T/C: 101%
[27]
  viability, T/C: 93.9%
[28]
  viability, T/C: 103%
[29]
  viability, T/C: 88.9%
[30]
  viability, T/C: 66.1%
[31]
  viability, T/C: 84.6%
[32]
  viability, T/C: 88.6%
[33]
  viability, T/C: 109%
[34]
  viability, T/C: 90.8%
[35]
  viability, T/C: 108%
[36]
  viability, T/C: 61.6%

## COc1cccc2c1C(=O)c1c(O)c3c(c(O)c1C2=O)CC(O)(C(=O)CO)CC3OC1CC(N)C(O)C(C)O1 (stereo not drawn) + CN(C)c1ccc(Nc2c3ccc(NC(=O)CCN4CCCC4)cc3nc3cc(NC(=O)CCN4CCCC4)ccc23)cc1
Second compound 0.0316 µM
  IC50: 1.66 µM
Second compound 0.1 µM
  IC50: 2.79 µM
Second compound 0.316 µM
  IC50: 4.11 µM
Second compound 1 µM
  IC50: 5.55 µM
Second compound 3.16 µM
  IC50: 5.92 µM
Second compound 10 µM
  IC50: 6.47 µM
[1]
  viability, T/C: 91.1%
[2]
  viability, T/C: 98%
[3]
  viability, T/C: 108%
[4]
  viability, T/C: 61.5%
[5]
  viability, T/C: 45.6%
[6]
  viability, T/C: 25.1%
[7]
  viability, T/C: 103%
[8]
  viability, T/C: 85.5%
[9]
  viability, T/C: 90.6%
[10]
  viability, T/C: 87.8%
[11]
  viability, T/C: 45.4%
[12]
  viability, T/C: 34.1%
[13]
  viability, T/C: 94%
[14]
  viability, T/C: 94.8%
[15]
  viability, T/C: 67.3%
[16]
  viability, T/C: 78.5%
[17]
  viability, T/C: 55.7%
[18]
  viability, T/C: 31.9%
[19]
  viability, T/C: 92.4%
[20]
  viability, T/C: 85.6%
[21]
  viability, T/C: 76.3%
[22]
  viability, T/C: 73.9%
[23]
  viability, T/C: 78.7%
[24]
  viability, T/C: 20.8%
[25]
  viability, T/C: 103%
[26]
  viability, T/C: 98.4%
[27]
  viability, T/C: 104%
[28]
  viability, T/C: 86.5%
[29]
  viability, T/C: 81%
[30]
  viability, T/C: 26.4%
[31]
  viability, T/C: 112%
[32]
  viability, T/C: 120%
[33]
  viability, T/C: 93.4%
[34]
  viability, T/C: 97.6%
[35]
  viability, T/C: 80%
[36]
  viability, T/C: 32.6%

## CC1COCCN1c1cc(C2(O)CC3CCC(C2)O3)c2cnn(-c3ccn[nH]3)c2n1 (stereo not drawn) + CN(C)c1ccc(Nc2c3ccc(NC(=O)CCN4CCCC4)cc3nc3cc(NC(=O)CCN4CCCC4)ccc23)cc1
Second compound 0.0316 µM
  IC50: 0.456 µM
Second compound 0.1 µM
  IC50: 0.545 µM
Second compound 0.316 µM
  IC50: 0.483 µM
Second compound 1 µM
  IC50: 0.784 µM
Second compound 3.16 µM
  IC50: 0.52 µM
Second compound 10 µM
  IC50: 0.906 µM
[1]
  viability, T/C: 124%
[2]
  viability, T/C: 78.8%
[3]
  viability, T/C: 67%
[4]
  viability, T/C: 29.4%
[5]
  viability, T/C: 23.3%
[6]
  viability, T/C: 18.4%
[7]
  viability, T/C: 82.8%
[8]
  viability, T/C: 82.2%
[9]
  viability, T/C: 68.2%
[10]
  viability, T/C: 29.8%
[11]
  viability, T/C: 21.3%
[12]
  viability, T/C: 22%
[13]
  viability, T/C: 112%
[14]
  viability, T/C: 86.1%
[15]
  viability, T/C: 66.4%
[16]
  viability, T/C: 27.3%
[17]
  viability, T/C: 22.1%
[18]
  viability, T/C: 19.7%
[19]
  viability, T/C: 98.6%
[20]
  viability, T/C: 102%
[21]
  viability, T/C: 70.5%
[22]
  viability, T/C: 47.3%
[23]
  viability, T/C: 20.2%
[24]
  viability, T/C: 19.7%
[25]
  viability, T/C: 127%
[26]
  viability, T/C: 79.7%
[27]
  viability, T/C: 65.5%
[28]
  viability, T/C: 39.4%
[29]
  viability, T/C: 21.5%
[30]
  viability, T/C: 25.4%
[31]
  viability, T/C: 115%
[32]
  viability, T/C: 113%
[33]
  viability, T/C: 86.4%
[34]
  viability, T/C: 48.8%
[35]
  viability, T/C: 21.7%
[36]
  viability, T/C: 25.2%
